Measurements from patent US11667602B2, “Compounds and their use” (AstraZeneca AB, priority 2020, dated 2023).
pEC50: −log10 of the molar value.

Biological target: T1, human RXFP1 (Homo sapiens, UniProt Q9HBX9)
T1 sequence (Q9HBX9 1-757): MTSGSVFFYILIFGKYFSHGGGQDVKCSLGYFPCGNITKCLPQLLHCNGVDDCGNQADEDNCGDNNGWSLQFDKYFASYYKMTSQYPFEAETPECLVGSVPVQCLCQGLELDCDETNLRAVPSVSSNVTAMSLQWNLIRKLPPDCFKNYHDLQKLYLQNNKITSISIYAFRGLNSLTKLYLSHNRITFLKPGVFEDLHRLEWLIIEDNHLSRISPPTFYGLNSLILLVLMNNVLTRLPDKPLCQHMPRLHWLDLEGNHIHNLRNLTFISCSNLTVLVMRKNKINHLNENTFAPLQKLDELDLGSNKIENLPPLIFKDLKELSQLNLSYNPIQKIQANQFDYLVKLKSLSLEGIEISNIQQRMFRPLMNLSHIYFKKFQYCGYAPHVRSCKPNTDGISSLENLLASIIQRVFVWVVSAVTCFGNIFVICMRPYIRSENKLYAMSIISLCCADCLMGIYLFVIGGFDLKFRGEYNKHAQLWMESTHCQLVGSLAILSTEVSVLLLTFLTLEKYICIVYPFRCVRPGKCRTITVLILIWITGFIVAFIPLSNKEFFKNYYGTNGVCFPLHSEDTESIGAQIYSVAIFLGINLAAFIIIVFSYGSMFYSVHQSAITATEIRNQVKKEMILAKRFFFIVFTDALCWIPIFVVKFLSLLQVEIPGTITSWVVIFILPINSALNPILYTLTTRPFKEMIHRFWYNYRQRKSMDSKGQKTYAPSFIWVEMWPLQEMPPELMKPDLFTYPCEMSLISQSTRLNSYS
Experiment: RXFP1 Hu cAMP (Test A)
Format: cell-based
Set-up: expressed in transfected cells; host or cells: Jump-In T-REx CHO-K1 cells (ThermoFisher), induced with 10 ng/ml doxycycline for 24 h
Conditions: RXFP1 Hu cAMP; for pEC50: read-out: Test A EC50
Procedure, shortened: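 CHO-K1 (Jump-In T-REx), RXFP1 induced w/ 10 ng/ml doxycycline 24 h, cryopreserved. 0.5 mM IBMX final. cAMP by HTRF, 2 h RT, std curve.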

Row | Compound | Test A Sinf [%] | pEC50
1 | COc1cc(C#N)c(O[C@H]2CC[C@@](C)(C(=O)O)CC2)cc1C(=O)N[C@@H]1[C@H]2CC[C@H](C2)[C@@H]1C(=O)NC1CCCC1 [Example 139] | 95 | 6.80
2 | COc1cc(F)c(-c2ncc(C(=O)O)s2)cc1C(=O)N[C@H]1[C@@H](C(=O)Nc2cccc(S(=O)(=O)C(F)(F)F)c2)[C@@H]2C=C[C@H]1C2 (racemic) [Example 287] | 111 | 6.24
3 | COC[C@]1(C(=O)O)CC[C@H](Oc2cc(C(=O)N[C@@H]3[C@@H]4CC[C@@H](C4)[C@@H]3C(=O)Nc3cccc(S(=O)(=O)C(F)(F)F)c3)c(OC)cc2F)CC1 [Example 480] | 100 | 7.01
4 | COc1cc(C#N)c(O[C@H]2CC[C@@](C)(C(=O)O)CC2)cc1C(=O)Nc1cc(C)ccc1C(=O)N[C@H]1CC[C@H](C)CC1 [Example 169] | 111 | 6.57
5 | CC1(CNC(=O)[C@H]2[C@@H]3CC[C@@H](C3)[C@H]2NC(=O)c2cc(O[C@H]3CC[C@@](C)(C(=O)O)CC3)cc3cccnc23)CCC1 [Example 407] | 99 | 6.59
6 | COc1cc(C#N)c(O[C@H]2CC[C@@](C)(C(=O)O)CC2)cc1C(=O)Nc1cc(C)ccc1C(=O)N[C@H]1C[C@@H](C)C1 [Example 171] | 119 | 6.36
7 | COc1cc(C#N)c(O[C@H]2CC[C@@](C)(C(=O)O)CC2)cc1C(=O)N[C@H]1[C@@H](C(=O)NCC2(C)CCC2)[C@H]2CC[C@@H]1O2 (racemic) [Example 333] | 98 | –
8 | COc1cc(F)c(OC2CC(CC(=O)O)C2)cc1C(=O)NC1C2CCC(C2)C1C(=O)Nc1cccc(S(=O)(=O)C(F)(F)F)c1 [Example 474, 2-((1R,3r)-3-(2-Fluoro-4-methoxy-5-(((1R,2R,3S,4S)-3-((3-((trifluoromethyl)sulfonyl)phenyl)carbamoyl)bicyclo[2.2.1]heptan-2-yl)carbamoyl)phenoxy)cyclobutyl)acetic acid] | 118 | 6.19
9 | COc1cc(C#N)c(O[C@H]2CC[C@@](C)(C(=O)O)CC2)cc1C(=O)N[C@@H]1[C@H]2CC[C@H](C2)[C@@H]1C(=O)NCC1CCOCC1 [Example 137] | 93 | < 5.64
10 | COc1cc(F)c(OCc2ccc(C(=O)O)cc2)cc1C(=O)N[C@@H]1[C@H]2CC[C@H](C2)[C@@H]1C(=O)Nc1cccc(S(=O)(=O)C(F)(F)F)c1 [Example 438] | 112 | 6.59
11 | COc1cc(F)c(O[C@H]2CC[C@@](C)(C(=O)O)CC2)cc1C(=O)N[C@@H]1[C@@H](OC)CC[C@@H]1C(=O)Nc1cccc(S(=O)(=O)C(F)(F)F)c1 (racemic) [Example 359] | 91 | 6.77
12 | COc1cc(F)c(O[C@H]2CC[C@@](C)(C(=O)O)CC2)cc1C(=O)N[C@@H]1[C@H]2CC[C@H](C2)[C@@H]1C(=O)N[C@@H](C)C(F)(F)F [Example 601] | 116 | –
13 | CCC(CC)NC(=O)c1ccc(C)cc1NC(=O)c1cc(O[C@H]2CC[C@@](C)(C(=O)O)CC2)c(C#N)cc1OC [Example 168] | 121 | < 5.66
14 | COc1cc(F)c(O[C@H]2CC[C@@](C)(C(=O)O)CC2)cc1C(=O)N[C@@H]1COC[C@@H]1C(=O)Nc1cccc(S(=O)(=O)C(F)(F)F)c1 (racemic) [Example 342] | 132 | 6.26
15 | COc1cc(F)c(OC[C@H]2CC[C@@H](C(=O)O)CC2)cc1C(=O)N[C@@H]1[C@H]2CC[C@H](C2)[C@@H]1C(=O)Nc1cccc(S(=O)(=O)C(F)(F)F)c1 [Example 440] | 111 | 5.92
16 | COc1cc(F)c(O[C@H]2CC[C@@](C)(C(=O)O)CC2)cc1C(=O)N[C@@H]1CCO[C@@H]1C(=O)Nc1cccc(S(=O)(=O)C(F)(F)F)c1 [Example 356] | 119 | –
17 | COc1cc(F)c(O[C@H]2CC[C@@](C)(C(=O)O)CC2)cc1C(=O)N[C@@H]1[C@H]2CC[C@H](C2)[C@@H]1C(=O)N[C@H]1CCCN(S(=O)(=O)C(F)(F)F)C1 [Example 607] | 92 | 6.80
18 | COc1cc(C#N)c(O[C@H]2CC[C@@](C)(C(=O)O)CC2)cc1C(=O)N[C@@H]1[C@H]2CC[C@H](C2)[C@@H]1C(=O)NCc1cccc(C)c1 [Example 115] | 94 | 6.66
19 | (1R,4s)-4-(2-Fluoro-4-methoxy-5-(((1S*,2R*)-2-(neopentylcarbamoyl)cyclobutyl)carbamoyl)phenoxy)-1-methylcyclohexane-1-carboxylic acid [Example 569] | 97 | –
20 | CC1(CNC(=O)C2C3CCC(CC3)C2NC(=O)c2cc(O[C@H]3CC[C@@](C)(C(=O)O)CC3)c(C#N)cc2F)CCC1 (single isomer, unassigned) [Example 588, (1R,4s)-4-(2-Cyano-4-fluoro-5-(((2S*,3R*)-3-(((1-methylcyclobutyl)methyl)carbamoyl)bicyclo[2.2.2]octan-2-yl)carbamoyl)phenoxy)-1-methylcyclohexane-1-carboxylic acid] | 95 | 8.12
21 | COc1cc(F)c(O[C@H]2CC[C@@](C)(C(=O)O)CC2)cc1C(=O)N[C@@H]1CCN(C(C)=O)C[C@@H]1C(=O)Nc1cccc(S(=O)(=O)C(F)(F)F)c1 (racemic) [Example 487, (1R,4s)-4-(5-(((3RS,4SR)-1-Acetyl-3-((3-((trifluoromethyl)sulfonyl)phenyl)carbamoyl)piperidin-4-yl)carbamoyl)-2-fluoro-4-methoxyphenoxy)-1-methylcyclohexane-1-carboxylic acid] | – | < 4.40
22 | COc1cc(F)c(Cn2ccc(C(=O)O)n2)cc1C(=O)N[C@@H]1[C@H]2CC[C@H](C2)[C@@H]1C(=O)Nc1cccc(S(=O)(=O)C(F)(F)F)c1 [Example 222, 1-(2-Fluoro-4-methoxy-5-(((1S,2R,3S,4R)-3-((3-((trifluoromethyl)sulfonyl)phenyl)carbamoyl)bicyclo[2.2.1]heptan-2-yl)carbamoyl)benzyl)-1H-pyrazole-3-carboxylic acid] | – | < 4.40
23 | COc1cc(F)c(O[C@H]2CC[C@@](C)(C(=O)O)CC2)cc1C(=O)N[C@@H]1[C@H]2CC[C@H](C2)[C@@H]1C(=O)NC(C)(C)C [Example 602] | 100 | 6.60
24 | COc1cc(F)c(-c2cncc(C(=O)O)c2)cc1C(=O)N[C@H]1[C@@H](C(=O)Nc2cccc(S(=O)(=O)C(F)(F)F)c2)[C@@H]2C=C[C@H]1C2 (racemic) [Example 228] | 110 | –
25 | COc1cc(F)c(OC2CCC(C)(CC(=O)O)CC2)cc1C(=O)NC1C2CCC(C2)C1C(=O)NCC1(C)CCC1 [Example 476, 2-((1S,4s)-4-(2-Fluoro-4-methoxy-5-(((1S,2R,3S,4R)-3-(((1-methylcyclobutyl)methyl)carbamoyl)bicyclo[2.2.1]heptan-2-yl)carbamoyl)phenoxy)-1-methylcyclohexyl)acetic acid] | 81 | 6.52
